Broadly, the Ki is the dissociation constant of the complex between target and ligand, obtained from inhibition or displacement.

The text below walks through data of patent publication US7932284B2, “Indole sulfonamide modulators of progesterone receptors” (Eli Lilly and Company, priority 2006, dated 2011).

Assay [1] has as its target T1, human MR (mineralocorticoid receptor) (Homo sapiens, UniProt P08235).
T1 construct: expressed in transfected cells; host or cells: HEK293
T1 sequence (P08235 1-984): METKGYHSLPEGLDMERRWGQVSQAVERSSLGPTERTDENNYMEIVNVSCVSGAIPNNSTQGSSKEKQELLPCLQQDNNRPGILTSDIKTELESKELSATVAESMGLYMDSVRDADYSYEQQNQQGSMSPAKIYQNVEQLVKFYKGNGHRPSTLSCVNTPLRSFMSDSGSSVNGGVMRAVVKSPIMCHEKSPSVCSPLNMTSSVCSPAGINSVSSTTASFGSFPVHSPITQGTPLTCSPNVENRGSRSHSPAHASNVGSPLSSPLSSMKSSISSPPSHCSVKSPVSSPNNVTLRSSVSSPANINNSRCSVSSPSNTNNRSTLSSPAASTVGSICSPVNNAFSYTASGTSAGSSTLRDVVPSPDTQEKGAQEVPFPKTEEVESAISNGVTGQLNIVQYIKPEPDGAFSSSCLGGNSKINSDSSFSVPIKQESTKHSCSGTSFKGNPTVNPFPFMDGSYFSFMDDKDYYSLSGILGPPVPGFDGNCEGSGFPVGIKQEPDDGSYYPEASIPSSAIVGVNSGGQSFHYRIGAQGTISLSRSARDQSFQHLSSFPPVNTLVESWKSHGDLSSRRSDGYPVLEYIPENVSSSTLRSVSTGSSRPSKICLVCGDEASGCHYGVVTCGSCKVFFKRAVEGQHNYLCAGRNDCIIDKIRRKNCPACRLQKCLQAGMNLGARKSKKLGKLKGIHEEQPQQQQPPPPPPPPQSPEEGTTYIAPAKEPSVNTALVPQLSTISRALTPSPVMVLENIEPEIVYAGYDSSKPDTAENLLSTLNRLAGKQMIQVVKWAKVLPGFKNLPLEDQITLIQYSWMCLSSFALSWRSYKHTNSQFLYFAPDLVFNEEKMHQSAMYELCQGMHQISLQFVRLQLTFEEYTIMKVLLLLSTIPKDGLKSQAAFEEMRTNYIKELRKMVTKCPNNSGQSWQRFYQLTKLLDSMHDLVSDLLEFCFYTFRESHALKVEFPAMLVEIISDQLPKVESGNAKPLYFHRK
Description: MR competition binding assay (HEK293 cell lysate). Particulars: 0.25 nM 3H-aldosterone, 293-MR lysate. The procedure: (§1) Cell lysates from HEK293 cells overexpressing human GR (glucocorticoid receptor), AR (androgen receptor), MR (mineralocorticoid receptor) or PR (progesterone receptor) are used for competition binding assays to determine Ki values for compounds of interest. Briefly, competition binding assays are run in a buffer containing 20 mM HEPES, pH 7.6, 0.2 mM EDTA, 75 mM NaCl, 1.5 mM MgCl2, 20% glycerol, 20 mM sodium molybdate, 0.2 mM DTT, 20 ug/ml aprotinin, and 20 ug/ml leupeptin, using either 0.3 nM ^3H-dexamethasone for GR binding, 0.36 nM ^3H-methyltrienolone for AR binding, 0.25 nM ^3H-aldosterone for MR binding, or 0.29 nM ^3H-methyltrienolone for PR binding, and either 20 ug 293-GR lysate, 22 ug 293-AR lysate, 20 ug 293-MR lysate or 40 ug 293-PR lysate per well. Competing compounds are added at various concentrations in half-log increments. Non-specific binding is determined in the presence of 500 nM dexamethasone for GR binding, 500 nM aldosterone for MR binding, or 500 nM methyltrienolone for AR and PR binding. The binding reaction (140 μl) is incubated overnight at 4° C., then 70 μl of cold charcoal-dextran buffer (containing per 50 ml of assay buffer, 0.75 g of charcoal and 0.25 g of dextran) is added to each reaction. Plates are mixed 8 minutes on an orbital shaker at 4° C. Plates are then centrifuged at 3,000 rpm at 4° C. for 10 minutes. An aliquot of 120 μl of the mixture is transferred to another 96-well plate and 175 μl of Wallac Optiphase “Hisafe 3” scintillation fluid is added to each well. Plates are sealed and shaken vigorously on an orbital shaker. After an incubation of 2 hrs, plates are read in a Wallac Microbeta counter. […] The Kd for ^3H-dexamethasone for GR binding, ^3H-methyltrienolone for AR binding, ^3H-aldosterone for MR binding, or ^3H-methyltrienolone for PR binding, is determined by saturation binding. The IC50 values for compounds are converted to Ki using Cheng-Prusoff equation and the Kd determined by saturation binding assay.

Assay [2] deals with T2, human PR (progesterone receptor) (Homo sapiens, UniProt P06401).
T2 construct: expressed in transfected cells; host or cells: HEK293
T2 sequence (P06401 1-933): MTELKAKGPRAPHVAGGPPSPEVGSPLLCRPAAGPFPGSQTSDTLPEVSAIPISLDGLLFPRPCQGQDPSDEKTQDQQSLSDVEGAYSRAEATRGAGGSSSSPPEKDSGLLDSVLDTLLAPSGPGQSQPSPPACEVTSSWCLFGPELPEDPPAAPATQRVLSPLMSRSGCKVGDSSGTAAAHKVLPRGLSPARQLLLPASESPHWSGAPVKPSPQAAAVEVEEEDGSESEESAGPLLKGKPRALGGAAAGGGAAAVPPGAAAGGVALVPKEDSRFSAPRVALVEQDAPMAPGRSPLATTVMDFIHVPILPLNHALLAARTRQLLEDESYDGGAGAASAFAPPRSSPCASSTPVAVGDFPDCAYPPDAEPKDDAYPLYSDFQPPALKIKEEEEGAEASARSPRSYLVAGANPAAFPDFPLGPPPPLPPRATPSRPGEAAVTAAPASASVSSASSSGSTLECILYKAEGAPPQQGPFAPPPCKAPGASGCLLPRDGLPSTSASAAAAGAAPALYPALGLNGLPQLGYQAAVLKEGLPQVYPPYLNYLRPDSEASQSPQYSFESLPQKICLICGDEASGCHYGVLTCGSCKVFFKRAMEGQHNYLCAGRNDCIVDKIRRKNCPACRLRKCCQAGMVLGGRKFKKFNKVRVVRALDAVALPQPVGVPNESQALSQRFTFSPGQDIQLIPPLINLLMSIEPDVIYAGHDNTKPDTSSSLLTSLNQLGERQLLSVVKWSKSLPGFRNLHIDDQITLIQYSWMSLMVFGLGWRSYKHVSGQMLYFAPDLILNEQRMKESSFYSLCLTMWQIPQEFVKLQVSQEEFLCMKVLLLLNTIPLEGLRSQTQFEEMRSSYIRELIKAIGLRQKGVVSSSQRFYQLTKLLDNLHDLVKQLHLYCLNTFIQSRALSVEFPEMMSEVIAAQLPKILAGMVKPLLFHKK
Description: PR competition binding assay (HEK293 cell lysate). The following applies: 0.29 nM 3H-methyltrienolone, 293-PR lysate. The method, then:
as §1
More preferably the compounds of the present invention have PR binding value K; of <10 nM.

A value given as a limit tells only on which side of the number the result lay.

As to `CCOC(=O)c1ccc(-c2cn(C(C)C)c3cc(NS(C)(=O)=O)ccc23)cc1` [Example 74, 4-(1-Isopropyl-6-methanesulfonylamino-1H-indol-3-yl)-benzoic acid ethyl ester], the Ki in assay [1] was 100 to 500 nM; in assay [2], below 50 nM.

On to `CC(C)n1cc(-c2ccc(Cl)cc2)c2ccc(NS(C)(=O)=O)cc21` [Example 36, N-[3-(4-Chloro-phenyl)-1-isopropyl-1H-indol-6-yl]-methanesulfonamide], for which the Ki in assay [1] is above 1000 nM; in assay [2] it was below 50 nM.

For `CS(=O)(=O)Nc1ccc2c(-c3ccc(C#N)cc3)cn(C3CCCC3)c2c1` [Example 63, N-[3-(4-Cyano-phenyl)-1-cyclopentyl-1H-indol-6-yl]-methanesulfonamide], the Ki in assay [1] is above 1000 nM; in assay [2], below 50 nM.

Consider `CC(C)n1cc(-c2ccc(C#N)c(F)c2)c2ccc(NS(C)(=O)=O)cc21` [Example 38, N-[3-(4-Cyano-3-fluoro-phenyl)-1-isopropyl-1H-indol-6-yl]-methanesulfonamide], for which the figures for the inhibition constant Ki in assay [1] and in assay [2] were 500 to 1000 nM and below 50 nM, respectively.

Take `CC(C)n1cc(-c2ccc3oc(=O)ccc3c2)c2ccc(NS(C)(=O)=O)cc21` [Example 96, N-[1-Isopropyl-3-(2-oxo-2H-chromen-6-yl)-1H-indol-6-yl]-methanesulfonamide]: the Ki in assay [1] is above 1000 nM; in assay [2] it was below 50 nM.

Consider `COc1ccc(-c2cn(C(C)C)c3cc(NS(C)(=O)=O)ccc23)cn1` [Example 88, N-[1-Isopropyl-3-(6-methoxy-pyridin-3-yl)-1H-indol-6-yl]-methanesulfonamide], for which the Ki in assay [1] was above 1000 nM; in assay [2] it was below 50 nM.

Consider `CC(C)n1cc(-c2ccc(C#N)s2)c2ccc(NS(C)(=O)=O)cc21` [Example 43, N-[3-(5-Cyano-thiophen-2-yl)-1-isopropyl-1H-indol-6-yl]-methanesulfonamide], for which the Ki in assay [1] is 100 to 500 nM; in assay [2], below 50 nM.

Turning to `CC(C)n1cc(-c2ccc(C#N)cc2)c2ccc(NS(=O)(=O)C(F)(F)F)cc21` [Example 98, N-[3-(4-Cyano-phenyl)-1-isopropyl-1H-indol-6-yl]-C,C,C-trifluoro-methanesulfonamide], the figures for the Ki in assay [1] and in assay [2] were above 1000 nM and below 50 nM, respectively.

In the case of `CC(C)n1cc(-c2ccc3sccc3c2)c2ccc(NS(C)(=O)=O)cc21` [Example 95, N-(3-Benzo[b]thiophen-5-yl-1-isopropyl-1H-indol-6-yl)-methanesulfonamide], the Ki is 500 to 1000 nM in assay [1] and below 50 nM in assay [2].

For the compound `Cc1ccc(-c2cn(C(C)C)c3cc(NS(C)(=O)=O)ccc23)cc1F` [Example 84, N-[3-(3-Fluoro-4-methyl-phenyl)-1-isopropyl-1H-indol-6-yl]-methanesulfonamide], the Ki in assay [1] is 500 to 1000 nM; in assay [2] it was below 50 nM.

Consider `Cn1cc(-c2ccc(C#N)cc2)c2ccc(NS(=O)(=O)c3cccs3)cc21` [Example 32, Thiophene-2-sulfonic acid [3-(4-cyano-phenyl)-1-methyl-1H-indol-6-yl]-amide], for which the Ki was above 1000 nM in assay [1] and below 50 nM in assay [2].

As for `CC(C)n1cc(-c2ccc(C#N)cc2)c2ccc(NS(=O)(=O)N3CCOCC3)cc21` [Example 100, Morpholine-4-sulfonic acid [3-(4-cyano-phenyl)-1-isopropyl-1H-indol-6-yl]-amide], the Ki in assay [1] is above 1000 nM; in assay [2], 50 to 100 nM.

On to `CS(=O)(=O)Nc1ccc2c(-c3ccc(C#N)cc3)cn(CC3CCCCC3)c2c1` [Example 77, N-[3-(4-Cyano-phenyl)-1-cyclohexylmethyl-1H-indol-6-yl]-methanesulfonamide], for which the Ki in assay [1] is 100 to 500 nM; in assay [2], below 50 nM.

As for `CC(C)n1cc(-c2ccc(C#N)cc2)c2ccc(NS(C)(=O)=O)cc21` [Example 28, N-[3-(4-Cyano-phenyl)-1-isopropyl-1H-indol-6-yl]-methanesulfonamide], the Ki in assay [1] is above 1000 nM; in assay [2] it was below 50 nM.

Turning to `CC(C)n1cc(-c2ccc(C=NO)cc2)c2ccc(NS(C)(=O)=O)cc21` [Example 94, N-{3-[4-(Hydroxyimino-methyl)-phenyl]-1-isopropyl-1H-indol-6-yl}-methanesulfonamide], the inhibition constant (Ki) is 500 to 1000 nM in assay [1] and below 50 nM in assay [2].

Take `CC(C)n1cc(-c2ccc(C(N)=O)cc2)c2ccc(NS(C)(=O)=O)cc21` [Example 87, 4-(1-Isopropyl-6-methanesulfonylamino-1H-indol-3-yl)-benzamide]: the Ki was above 1000 nM in assay [1] and below 50 nM in assay [2].

For `CC(C)n1cc(-c2ccccc2)c2ccc(NS(C)(=O)=O)cc21` [Example 85, N-(1-Isopropyl-3-phenyl-1H-indol-6-yl)-methanesulfonamide], the Ki was 500 to 1000 nM in assay [1] and below 50 nM in assay [2].

For the compound `Cn1cc(-c2ccc(C#N)cc2)c2ccc(NS(C)(=O)=O)cc21` [Example 25, N-[3-(4-Cyano-phenyl)-1-methyl-1H-indol-6-yl]-methanesulfonamide], the Ki in assay [1] was above 1000 nM; in assay [2], below 50 nM.

`CSc1ccc(-c2cn(C(C)C)c3cc(NS(C)(=O)=O)ccc23)cc1` [Example 83, N-[1-Isopropyl-3-(4-methylsulfanyl-phenyl)-1H-indol-6-yl]-methanesulfonamide]: the Ki in assay [1] is 500 to 1000 nM; in assay [2], below 50 nM.

As to `CC(C)n1cc(-c2ccc(O)cc2)c2ccc(NS(C)(=O)=O)cc21` [Example 93, N-[3-(4-Hydroxy-phenyl)-1-isopropyl-1H-indol-6-yl]-methanesulfonamide], the Ki in assay [1] is 100 to 500 nM; in assay [2], below 50 nM.
